The target of one assay is Histamine H1 receptor (Homo sapiens, UniProt P35367).
Another assay deals with Histamine H3 receptor (Homo sapiens, UniProt Q9Y5N1). Description: Inhibition constant against histamine H3 receptor.
Assay [1] addresses T1, Type-2 angiotensin II receptor (Homo sapiens, UniProt P50052).
T1 sequence (P50052 whole entry): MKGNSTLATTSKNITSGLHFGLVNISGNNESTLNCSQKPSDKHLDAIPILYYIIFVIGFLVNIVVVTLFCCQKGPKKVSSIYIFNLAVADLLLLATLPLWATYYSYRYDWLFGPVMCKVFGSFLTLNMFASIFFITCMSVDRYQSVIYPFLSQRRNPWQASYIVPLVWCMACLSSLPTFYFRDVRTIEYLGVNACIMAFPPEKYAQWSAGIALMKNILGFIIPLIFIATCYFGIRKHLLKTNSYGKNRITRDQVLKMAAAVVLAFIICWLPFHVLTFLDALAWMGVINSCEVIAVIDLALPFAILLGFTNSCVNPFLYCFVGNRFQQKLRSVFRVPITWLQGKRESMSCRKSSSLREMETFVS
Description: Inhibitory concentration against angiotensin II receptor, type 2

For the next assay, the target named is T2, Endothelin-1 receptor (Homo sapiens, UniProt P25101).
T2 sequence (P25101 whole entry): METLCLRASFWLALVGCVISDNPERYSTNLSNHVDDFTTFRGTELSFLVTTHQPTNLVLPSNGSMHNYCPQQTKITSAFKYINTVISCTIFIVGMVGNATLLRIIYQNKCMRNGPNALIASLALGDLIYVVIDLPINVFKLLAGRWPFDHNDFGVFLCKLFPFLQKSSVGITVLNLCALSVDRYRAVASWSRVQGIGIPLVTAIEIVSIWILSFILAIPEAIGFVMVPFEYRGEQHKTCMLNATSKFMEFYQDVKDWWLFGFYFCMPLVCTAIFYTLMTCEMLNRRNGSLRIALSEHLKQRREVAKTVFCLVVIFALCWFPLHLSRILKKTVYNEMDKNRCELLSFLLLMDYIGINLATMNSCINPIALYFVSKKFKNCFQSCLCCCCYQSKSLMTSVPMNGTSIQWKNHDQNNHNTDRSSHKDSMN
Put plainly: Inhibitory concentration against endothelin receptor type A.

Assay [2] concerns the target Endothelin receptor type B (Homo sapiens, UniProt P24530).
Description: Inhibitory concentration against endothelin receptor type B
Assay [3] deals with T3, Type-1 angiotensin II receptor (Homo sapiens, UniProt P30556).
T3 sequence (P30556 whole entry): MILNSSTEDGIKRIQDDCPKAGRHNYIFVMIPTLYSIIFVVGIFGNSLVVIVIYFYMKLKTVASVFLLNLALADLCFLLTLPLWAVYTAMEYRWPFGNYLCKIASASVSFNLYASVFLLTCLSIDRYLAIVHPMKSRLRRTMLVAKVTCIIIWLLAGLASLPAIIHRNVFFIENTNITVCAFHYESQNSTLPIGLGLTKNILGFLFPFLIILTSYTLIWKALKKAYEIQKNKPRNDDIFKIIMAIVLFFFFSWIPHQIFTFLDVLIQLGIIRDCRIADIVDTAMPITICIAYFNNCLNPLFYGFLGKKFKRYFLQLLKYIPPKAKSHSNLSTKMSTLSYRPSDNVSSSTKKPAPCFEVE
Description: Inhibitory concentration against angiotensin II receptor, type 1

Another assay deals with Neprilysin (Homo sapiens, UniProt P08473). Put plainly: Inhibition constant against neutral endopeptidase.
Sequence of Neprilysin (P08473 whole entry): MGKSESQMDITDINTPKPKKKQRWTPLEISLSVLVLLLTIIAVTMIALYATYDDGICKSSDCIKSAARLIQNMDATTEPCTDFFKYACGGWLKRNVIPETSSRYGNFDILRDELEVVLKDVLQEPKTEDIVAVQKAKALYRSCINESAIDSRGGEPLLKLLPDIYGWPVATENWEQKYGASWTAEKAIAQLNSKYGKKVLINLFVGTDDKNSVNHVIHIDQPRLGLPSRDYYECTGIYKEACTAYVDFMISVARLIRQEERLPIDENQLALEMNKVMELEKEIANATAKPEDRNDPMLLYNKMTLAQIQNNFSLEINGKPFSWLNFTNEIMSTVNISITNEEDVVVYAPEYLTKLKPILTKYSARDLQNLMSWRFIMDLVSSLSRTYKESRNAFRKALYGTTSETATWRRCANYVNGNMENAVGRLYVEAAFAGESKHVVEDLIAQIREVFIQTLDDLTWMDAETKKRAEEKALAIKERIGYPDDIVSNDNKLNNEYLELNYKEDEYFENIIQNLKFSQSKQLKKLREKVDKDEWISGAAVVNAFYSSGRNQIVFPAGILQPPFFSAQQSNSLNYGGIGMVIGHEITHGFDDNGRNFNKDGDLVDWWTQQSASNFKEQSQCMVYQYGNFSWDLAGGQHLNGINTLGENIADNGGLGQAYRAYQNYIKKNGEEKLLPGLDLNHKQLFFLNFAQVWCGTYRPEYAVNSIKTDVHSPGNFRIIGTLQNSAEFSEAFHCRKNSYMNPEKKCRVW
For assay [4], the target named is Endothelin-converting enzyme 1 (Homo sapiens, UniProt P42892). Description: Inhibition constant against endothelin converting enzyme 1.
Sequence of Endothelin-converting enzyme 1 (P42892 whole entry): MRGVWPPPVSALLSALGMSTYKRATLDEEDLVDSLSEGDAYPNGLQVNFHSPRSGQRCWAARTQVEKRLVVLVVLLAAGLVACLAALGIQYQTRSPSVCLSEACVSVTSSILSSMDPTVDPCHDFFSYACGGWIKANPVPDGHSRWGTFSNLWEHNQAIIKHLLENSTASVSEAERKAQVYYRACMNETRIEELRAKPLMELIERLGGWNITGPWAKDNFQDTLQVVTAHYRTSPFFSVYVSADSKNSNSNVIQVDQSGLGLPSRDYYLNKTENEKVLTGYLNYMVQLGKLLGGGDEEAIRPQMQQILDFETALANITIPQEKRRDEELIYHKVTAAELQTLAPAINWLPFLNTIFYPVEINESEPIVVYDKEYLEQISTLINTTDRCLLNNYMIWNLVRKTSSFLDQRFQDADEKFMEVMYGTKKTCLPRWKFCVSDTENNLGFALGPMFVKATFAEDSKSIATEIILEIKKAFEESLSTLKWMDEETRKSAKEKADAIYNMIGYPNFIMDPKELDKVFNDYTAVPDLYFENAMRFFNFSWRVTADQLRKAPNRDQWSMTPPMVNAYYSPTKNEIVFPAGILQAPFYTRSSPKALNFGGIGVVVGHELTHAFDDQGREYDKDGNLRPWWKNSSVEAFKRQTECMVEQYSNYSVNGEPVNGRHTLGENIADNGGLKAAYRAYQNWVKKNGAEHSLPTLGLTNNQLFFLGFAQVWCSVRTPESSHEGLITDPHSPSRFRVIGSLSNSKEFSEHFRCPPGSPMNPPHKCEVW
Assay [5] deals with Angiotensin-converting enzyme (Homo sapiens, UniProt P12821). Description: Inhibition constant against angiotensin I converting enzyme.
Sequence of Angiotensin-converting enzyme (P12821 whole entry): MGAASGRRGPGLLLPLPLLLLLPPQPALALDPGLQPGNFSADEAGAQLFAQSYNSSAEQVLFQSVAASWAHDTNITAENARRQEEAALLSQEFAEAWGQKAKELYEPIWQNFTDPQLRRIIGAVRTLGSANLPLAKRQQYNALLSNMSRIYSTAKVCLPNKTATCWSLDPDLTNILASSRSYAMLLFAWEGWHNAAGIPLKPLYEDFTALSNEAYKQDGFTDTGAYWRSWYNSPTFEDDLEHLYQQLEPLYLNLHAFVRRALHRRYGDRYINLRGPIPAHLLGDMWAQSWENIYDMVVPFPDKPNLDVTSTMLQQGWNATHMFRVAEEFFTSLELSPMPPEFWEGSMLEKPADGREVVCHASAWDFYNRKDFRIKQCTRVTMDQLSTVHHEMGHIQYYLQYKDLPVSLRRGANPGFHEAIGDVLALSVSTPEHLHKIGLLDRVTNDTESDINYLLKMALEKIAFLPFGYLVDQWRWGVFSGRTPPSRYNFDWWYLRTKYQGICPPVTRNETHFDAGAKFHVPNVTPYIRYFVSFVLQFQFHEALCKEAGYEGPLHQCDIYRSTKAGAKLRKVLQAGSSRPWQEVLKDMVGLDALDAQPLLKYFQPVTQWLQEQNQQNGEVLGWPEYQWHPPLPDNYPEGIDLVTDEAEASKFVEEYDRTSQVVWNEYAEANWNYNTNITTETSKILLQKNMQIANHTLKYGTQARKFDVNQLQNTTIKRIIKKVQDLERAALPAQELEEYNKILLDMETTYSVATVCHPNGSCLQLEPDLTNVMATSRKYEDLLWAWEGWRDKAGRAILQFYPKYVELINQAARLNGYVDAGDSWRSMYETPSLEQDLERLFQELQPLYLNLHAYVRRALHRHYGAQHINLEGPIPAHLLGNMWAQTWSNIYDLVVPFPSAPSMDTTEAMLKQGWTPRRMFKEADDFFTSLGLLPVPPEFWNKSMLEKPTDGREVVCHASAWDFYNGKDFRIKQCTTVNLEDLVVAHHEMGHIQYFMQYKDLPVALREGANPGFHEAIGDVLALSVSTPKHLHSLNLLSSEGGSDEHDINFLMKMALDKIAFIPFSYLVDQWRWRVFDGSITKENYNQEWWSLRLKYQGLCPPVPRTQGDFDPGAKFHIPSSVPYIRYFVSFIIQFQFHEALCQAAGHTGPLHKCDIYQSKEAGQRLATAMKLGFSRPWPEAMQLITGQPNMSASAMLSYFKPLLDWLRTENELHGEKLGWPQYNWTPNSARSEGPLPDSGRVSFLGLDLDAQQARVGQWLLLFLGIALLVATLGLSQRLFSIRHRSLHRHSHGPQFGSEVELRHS

Sequence of Histamine H1 receptor (P35367 whole entry): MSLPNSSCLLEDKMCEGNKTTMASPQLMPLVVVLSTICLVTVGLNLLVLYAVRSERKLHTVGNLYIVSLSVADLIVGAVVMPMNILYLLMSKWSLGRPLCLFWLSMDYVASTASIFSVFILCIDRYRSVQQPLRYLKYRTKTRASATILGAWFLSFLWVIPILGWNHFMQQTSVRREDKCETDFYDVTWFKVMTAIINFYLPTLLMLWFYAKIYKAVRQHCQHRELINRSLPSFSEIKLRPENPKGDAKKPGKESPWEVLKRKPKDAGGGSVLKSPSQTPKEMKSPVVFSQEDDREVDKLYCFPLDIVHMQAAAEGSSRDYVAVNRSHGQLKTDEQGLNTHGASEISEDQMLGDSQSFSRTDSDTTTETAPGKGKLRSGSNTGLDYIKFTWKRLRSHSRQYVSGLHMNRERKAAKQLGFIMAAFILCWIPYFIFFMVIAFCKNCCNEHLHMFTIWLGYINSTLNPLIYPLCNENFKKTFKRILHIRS
Sequence of Endothelin receptor type B (P24530 whole entry): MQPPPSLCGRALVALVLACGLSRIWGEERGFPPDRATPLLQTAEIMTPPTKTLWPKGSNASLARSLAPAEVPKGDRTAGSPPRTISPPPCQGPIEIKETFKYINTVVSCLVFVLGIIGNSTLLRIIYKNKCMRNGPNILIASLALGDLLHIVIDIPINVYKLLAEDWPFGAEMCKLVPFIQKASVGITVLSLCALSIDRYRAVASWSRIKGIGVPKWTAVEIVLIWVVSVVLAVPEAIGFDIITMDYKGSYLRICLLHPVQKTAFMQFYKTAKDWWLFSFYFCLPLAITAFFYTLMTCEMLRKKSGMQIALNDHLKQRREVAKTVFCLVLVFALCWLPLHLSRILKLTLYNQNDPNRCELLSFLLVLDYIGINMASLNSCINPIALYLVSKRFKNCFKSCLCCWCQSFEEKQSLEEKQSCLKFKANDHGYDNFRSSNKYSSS
Sequence of Histamine H3 receptor (Q9Y5N1 whole entry): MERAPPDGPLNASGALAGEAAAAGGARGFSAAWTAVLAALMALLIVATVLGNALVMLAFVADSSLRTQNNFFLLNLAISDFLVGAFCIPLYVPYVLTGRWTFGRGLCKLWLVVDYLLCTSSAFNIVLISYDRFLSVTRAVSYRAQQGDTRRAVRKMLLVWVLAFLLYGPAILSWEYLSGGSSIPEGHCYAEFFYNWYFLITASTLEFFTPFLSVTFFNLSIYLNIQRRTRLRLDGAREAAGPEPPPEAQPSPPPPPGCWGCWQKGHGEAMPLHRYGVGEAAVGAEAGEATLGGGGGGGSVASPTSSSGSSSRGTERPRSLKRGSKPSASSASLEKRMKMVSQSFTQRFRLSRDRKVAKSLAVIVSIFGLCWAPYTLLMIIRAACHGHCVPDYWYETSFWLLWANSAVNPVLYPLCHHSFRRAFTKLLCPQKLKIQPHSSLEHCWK
Description for Histamine H1 receptor: Inhibition constant against histamine H1 receptor

Turning to `CN(CCCCc1c[nH]cn1)CCC(c1ccc(Cl)cc1)c1ccccn1` (centres undefined), the inhibitory constant (Ki) at Histamine H1 receptor turned out to be 7 nM; at Histamine H3 receptor, 15 nM.

With `CCCc1cc(Cn2c(CC)nc3c(C)cc(C)nc32)ccc1OC(C(=O)NS(=O)(=O)c1ccc(C(C)C)cc1)c1ccc2c(c1)OCC2` (centres undefined), the IC50 in [1] turned out to be 32 nM; against Endothelin-1 receptor, 24 nM; in assay [2], 60 nM; in assay [3], 13 nM.

For `COc1ccc2c(c1)CC[C@H]2[C@@H](CS)C(=O)N[C@@H](Cc1c[nH]c2ccccc12)C(=O)O`, the inhibition constant Ki on Neprilysin came out at 24 nM; in assay [4], 10 nM; in assay [5], 1.3 nM.

The term Ki denotes the equilibrium dissociation constant of an inhibitor or competing ligand from its target. As a reminder, the IC50 is the concentration needed to halve the response being measured. The low end stands for inhibition by little substance, the high end for a need for much substance.

The record behind these values is ChEMBL document CHEMBL1140446, “Designed multiple ligands. An emerging drug discovery paradigm” (J Med Chem, 2005).
